Experimental data reported in patent US20240025918A1, “KRAS G12D Inhibitors” (Jacobio Pharmaceuticals Co., Ltd, priority 2020, published 2024).

Tests used:
[1] = molecular target: T1, GDP-loaded HIS-KRAS(G12D, aa 1-169) (Homo sapiens, UniProt P01116, G12D); test: SOS1 catalyzed nucleotide exchange assay (TR-FRET); type: biochemical; details: 4 hours at 25° C.
T1 construct: GDP-loaded HIS-KRAS(G12D, aa 1-169)
Method: GDP-loaded HIS-KRAS(G12D, aa 1-169) was pre-incubated with a compound in the presence of 10 nM GDPin a 384-well plate (Greiner) for 15 min, then purified SOS1 ExD(Flag tag, aa 564-1049), BODIPY™ FL GTP (Invitrogen) and MAb (monoclonal antibody) Anti 6HIS-Tb cryptate Gold (Cisbio) were added to the assay wells (Final concentration: 1.5 nM GDP-loaded HIS-KRAS(G12D), 5 nM GDP, 0.5 μM SOS1 ExD, 80 nM BODIPY™ FL GTP, 52.5 ng/mL MAb Anti 6HIS-Tb cryptate Gold) and incubated for 4 hours at 25° C. Wells containing same percent of DMSO served as vehicle control, and wells without KRAS served as low control. TR-FRET signals were read on Tecan Spark multimode microplate reader. The parameters were F486: Excitation 340 nm, Emission 486 nm, Lag time 100 μs, Integration time 200 μs; F515: Excitation 340 nm, Emission 515 nm, Lag time 100 μs, Integration time 200 μs. TR-FRET ratios for each individual wells were calculated by equation: TR-FRET ratio=(Signal F515/Signal F486)*10000. The percent of activation of compounds treated wells were normalized between vehicle control and low control (% Activation=(TR-FRET ratioCompound treated−TR-FRET ratioLow control)/(TR-FRET ratioVehicle control−TR-FRET ratioLow control)*100%). Then the data were analyzed by fitting a 4-parameter logistic model or calculating in Excel to calculate IC50 values.

[2] = molecular target: T2, GppNp-loaded HIS-KRAS(G12D, aa 1-169) and cRAF RBD (Homo sapiens, UniProt P01116, G12D); test: GTP-KRAS and cRAF interaction assay (HTRF); type: biochemical; details: 2 hours at 25° C.
T2 construct: GppNp-loaded HIS-KRAS(G12D, aa 1-169)
Method: GppNp-loaded HIS-KRAS(G12D, aa 1-169) was pre-incubated with a compound in the presence of 200 μM GTP in a 384-well plate (Greiner) for 15 min, then cRAF RBD(GST tag, aa 50-132, CreativeBioMart), MAb Anti GST-d2 (Cisbio) and MAb Anti 6HIS-Tb cryptate Gold (Cisbio) were added to the assay wells (Final concentration: 2.0 nM GppNp-loaded HIS-KRAS(G12D), 100 μM GTP, 35 nM cRAF RBD, 1 μg/mL MAb Anti GST-d2, 52.5 ng/mL MAb Anti 6HIS-Tb cryptate Gold) and incubated for 2 hours at 25° C. Wells containing same percent of DMSO served as vehicle control, and wells without KRAS served as low control. HTRF signals were read on Tecan Spark multimode microplate reader and HTRF ratios were calculated under manufacturer's instructions. The percent of activation of compounds treated wells were normalized between vehicle control and low control (% Activation=(HTRF ratioCompound treated−HTRF ratioLow control)/(HTRF ratioVehicle control−HTRF ratioLow control)*100%). Then the data were analyzed by fitting a 4-parameter logistic model or calculating in Excel to calculate IC50 values.

[3] = test system: AGS cells expressing KRAS G12D; test: Phospho-ERK1/2(THR202/TYR204) HTRF assay; type: cell-based; details: Homo sapiens; Phospho-ERK1/2 in AGS cells, 2 hours incubation
Method: AGS cells expressing KRAS G12D were cultured in F12K medium (Gibco) containing 10% fetal bovine serum (Gibco). The AGS cells in culture medium were seeded in 96-well plates at a concentration of 40,000 cells/well and then put in a 37° C./5% CO2 cell incubator to incubate overnight. The next day, culture medium was removed and the compound diluted in assay medium (F12K, 0.1% FBS) was added in each well. After 2 hours incubation in a 37° C./5% CO2 cell incubator, the assay medium in 96-well plates was removed, then 50 μL of 1× blocking reagent-supplemented lysis buffer (Cisbio) was added and the plates were incubated at 25° C. for 45 min with shaking. 10 μL of cell lysates from the 96-well plates were transferred to a 384-well plate (Greiner) containing 2.5 μL/well HTRF® pre-mixed antibodies (Cisbio 64AERPEH). Incubate 4 hours at 25° C. and then read HTRF signals on Tecan Spark multimode microplate reader. The data were analyzed using a 4-parameter logistic model to calculate IC50 values.

[4] = test system: AsPC-1; test: Cell growth inhibition assay, AsPC-1 (CellTiter-Glo); type: cell-based; details: Homo sapiens, ASPC1, 144 h; AsPC-1 cell viability, 6 days incubation
Method: AsPC-1 cultured in RPMI-1640 medium (Gibco) containing 10% fetal bovine serum (Gibco). Cells in culture medium were plated in 96-well plates at a concentration of 1000 cells/well (100 μL/well) and allowed to attach overnight.
(§1) The next day, compounds were diluted in culture medium and added to the plates. After 6 days incubation in a 37° C./5% CO2 cell incubator, the cell viability was detected by CellTiter-Glo® Luminescent Cell Viability Assay kit (Promega). Luminescent signals were read on Tecan Spark multimode microplate reader and analyzed using a 4-parameter logistic model to calculate IC50 values.

[5] = test system: AGS; test: Cell growth inhibition assay, AGS (CellTiter-Glo); type: cell-based; details: Homo sapiens, 144 h; AGS cell viability, 6 days incubation
Method: AGS cultured in F12K medium (Gibco) containing 10% fetal bovine serum (Gibco). Cells in culture medium were plated in 96-well plates at a concentration of 500 cells/well (100 μL/well) and allowed to attach overnight.
as §1

T1 sequence (P01116 1-169 isoform P01116-2 G12D): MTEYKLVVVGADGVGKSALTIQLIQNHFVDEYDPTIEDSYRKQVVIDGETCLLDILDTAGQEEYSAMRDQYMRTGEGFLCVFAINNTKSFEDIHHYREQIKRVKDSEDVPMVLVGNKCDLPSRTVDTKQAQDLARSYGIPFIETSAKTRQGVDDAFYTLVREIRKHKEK
T2 sequence (P01116 1-169 isoform P01116-2 G12D): as above

Row | SMILES | IC50 [1] [nM] | IC50 [2] [nM] | IC50 [3] [nM] | IC50 [4] [nM] | IC50 [5] [nM]
1 | C#Cc1cccc2cc(O)cc(-c3c(F)cc4c(N5CC6CCC(C5)N6)nc(OCC5(CN6CCOC7(CC7)C6)CC5)nc4c3F)c12 (single isomer, unassigned) [Compound 2A] | > 100 | > 10000 |  |  | 
2 | C#Cc1cccc2cc(O)cc(-c3c(F)cc4c(N5CC6CCC(C5)N6)nc(OCC5(CN6CCOC7(CC7)C6)CC5)nc4c3F)c12 (single isomer, unassigned) [Compound 2B] | 1.24 | 41.3 | 30.3 | 13.5 | 0.892
3 | C#Cc1cccc2cc(O)cc(-c3c(F)cc4c(N5CC6CCC(C5)N6)nc(OCC5(CN6CCC7(CC6)CC7(F)F)CC5)nc4c3F)c12 (single isomer, unassigned) [Compound 3A] | > 100 | 9080 |  |  | 
4 | C#Cc1c(F)ccc2cc(O)cc(-c3c(Cl)cc4c(N5CC6CCC(C5)N6)nc(OCC5(CN6CC7CC6CO7)CC5)nc4c3F)c12 (single isomer, unassigned) [Compound 4A] | 244 | 1570 |  |  | 
5 | C#Cc1c(F)ccc2cc(O)cc(-c3c(Cl)cc4c(N5CC6CCC(C5)N6)nc(OCC5(CN6CC7CC6CO7)CC5)nc4c3F)c12 (single isomer, unassigned) [Compound 4B] | 0.31 | 9.19 |  |  | 
6 | C#Cc1cccc2cc(O)cc(-c3c(F)cc4c(N5CC6CCC(C5)N6)nc(OCC5(CN6CC7CC6CO7)CC5)nc4c3F)c12 (single isomer, unassigned) [Compound 13A] | > 100 | > 10000 | 271 |  | 
7 | C#Cc1cccc2cc(O)cc(-c3c(F)cc4c(N5CC6CCC(C5)N6)nc(OCC5(CN6CC7CC6CO7)CC5)nc4c3F)c12 (single isomer, unassigned) [Compound 36A] | > 100 | 20.2 |  |  | 
8 | C#Cc1cccc2cc(O)cc(-c3c(F)cc4c(N5CC6CCC(C5)N6)nc(OCC5(CN6CCC6)CC5)nc4c3F)c12 [Compound 1] | 5.41 | 247 | 58.3 |  | 
9 | C#Cc1cccc2cc(O)cc(-c3c(F)cc4c(N5CC6CCC(C5)N6)nc(OCC5(CN6CCOC7(CC7)C6)CC5)nc4c3F)c12 [Compound 2] | 26 | 228 |  |  | 
10 | C#Cc1cccc2cc(O)cc(-c3c(F)cc4c(N5CC6CCC(C5)N6)nc(OCC5(CN6CCC7(CC6)CC7(F)F)CC5)nc4c3F)c12 [Compound 3] | 37.1 | 115 | 95.5 | 22.8 | 6.76
11 | C#Cc1c(F)ccc2cc(O)cc(-c3c(Cl)cc4c(N5CC6CCC(C5)N6)nc(OCC5(CN6C[C@@H]7C[C@H]6CO7)CC5)nc4c3F)c12 [Compound 4] |  |  | 38.8 |  | 
12 | C#Cc1cccc2cc(O)cc(-c3c(F)cc4c(N5CC6CCC(C5)N6)nc(OCC5(CN6CCCC7(C6)CC7(F)F)CC5)nc4c3F)c12 (centres unmarked) [Compound 5] | 55.5 | 310 |  | 62.1 | 21
13 | C#Cc1cccc2cc(O)cc(-c3c(F)cc4c(N5CC6CCC(C5)N6)nc(OCC5(CN6CCOC7(CCC7)C6)CC5)nc4c3F)c12 [Compound 6] | 66.2 | 437 |  |  | 
14 | C#Cc1cccc2cc(O)cc(-c3c(F)cc4c(N5CC6CCC(C5)N6)nc(OCC5(CN6CC7CC6CO7)CC5)nc4c3F)c12 (centres unmarked) [Compound 13] | 12 |  |  |  | 
15 | C#Cc1cccc2cc(O)cc(-c3c(F)cc4c(N5CC6CCC(C5)N6)nc(OCC5(CN6CCc7ccccc7C6)CC5)nc4c3F)c12 [Compound 16] | 27.3 |  |  |  | 
16 | C#Cc1cccc2cc(O)cc(-c3c(F)cc4c(N5CC6CCC(C5)N6)nc(OCC5(CN6CC7(CC(O)C7)C6)CC5)nc4c3F)c12 [Compound 18] | 0.975 | 77.8 |  |  | 
17 | C#Cc1cccc2cc(O)cc(-c3ccc4c(N5CC6CCC(C5)N6)nc(OCC5(Cc6ccccn6)CC5)nc4c3F)c12 [Compound 23] | > 100 | > 10000 |  |  | 
18 | C#Cc1cccc2cc(O)cc(-c3c(F)cc4c(N5CC6CCC(C5)N6)nc(OCC5(CN6CC(O)C6)CC5)nc4c3F)c12 [Compound 26] | 2.58 | 113 | 56.3 |  | 
19 | C#Cc1cccc2cc(O)cc(-c3c(F)cc4c(N5CC6CCC(C5)N6)nc(OCC5(CN6CC(C)(O)C6)CC5)nc4c3F)c12 [Compound 29] | 3.5 | 71.6 | 25 |  | 
20 | C#Cc1c(F)ccc2cc(O)cc(-c3c(C(C)C)cc4c(N5CC6CCC(C5)N6)nc(OCC5(CN6C[C@@H]7C[C@H]6CO7)CC5)nc4c3F)c12 [Compound 38] | 1.15 | 5.82 |  |  | 
21 | C#Cc1c(F)ccc2cc(O)cc(-c3c(C(F)(F)F)cc4c(N5CC6CCC(C5)N6)nc(OCC5(CN6C[C@@H]7C[C@H]6CO7)CC5)nc4c3F)c12 [Compound 40] | 1.29 | 8.09 |  |  | 
22 | C#Cc1c(F)ccc2cc(O)cc(-c3c(C#N)cc4c(N5CC6CCC(C5)N6)nc(OCC5(CN6C[C@@H]7C[C@H]6CO7)CC5)nc4c3F)c12 [Compound 41] | 1.04 | 7.18 |  |  | 
23 | C#Cc1c(F)ccc2cc(O)cc(-c3c(SC(F)(F)F)cc4c(N5CC6CCC(C5)N6)nc(OCC5(CN6C[C@@H]7C[C@H]6CO7)CC5)nc4c3F)c12 [Compound 42] | 0.97 | 4.04 |  |  | 
24 | CCc1c(F)ccc2cc(O)cc(-c3c(C(F)(F)F)cc4c(N5CC6CCC(C5)N6)nc(OCC5(CN6C[C@@H]7C[C@H]6CO7)CC5)nc4c3F)c12 [Compound 43] | 4.64 | 436 |  |  | 
25 | C#Cc1cccc2cc(O)cc(-c3c(F)cc4c(N5CC6CCC(C5)N6)nc(OCC5(CN6CC7(CCCO7)C6)CC5)nc4c3F)c12 [Compound 44] | 35.7 |  |  |  | 
26 | C#Cc1cccc2cc(O)cc(-c3c(F)cc4c(N5CC6CCC(C5)N6)nc(OCC5(CN6CC7(CC(OC)C7)C6)CC5)nc4c3F)c12 [Compound 49] | 3.95 | 73.2 | 46.4 |  | 
27 | C#Cc1cccc2cc(O)cc(-c3c(F)cc4c(N5CC6CCC(C5)N6)nc(OCC5(CN6CCn7cncc7C6)CC5)nc4c3F)c12 [Compound 53] | 2.59 | 818 | 80.3 |  | 
28 | C#Cc1cccc2cc(O)cc(-c3c(F)cc4c(N5CC6CCC(C5)N6)nc(OCC5(CN6C7COCC6C7)CC5)nc4c3F)c12 [Compound 57] | 6.81 | 439 | 46.3 |  | 
29 | C#Cc1cccc2cc(O)cc(-c3c(F)cc4c(N5CC6CCC(C5)N6)nc(OCC5(CN6Cc7ccccc7C6)CC5)nc4c3F)c12 [Compound 58] | 2.04 | 188 |  | 91 | 34
